Laboratory results: PMC8752738, “A propolis-derived small molecule ameliorates metabolic syndrome in obese mice by targeting the CREB/CRTC2 transcriptional complex” (Nature Communications, 2022)
Several values for one entry are separate records, joined by “and”; a condition that tells them apart may be missing. Equal values may be shown once. Entries after “also recorded” stand apart in the source; their conditions may differ.

What was measured:
CREB-CRTC2 interaction = target: T1, CREB-CRTC2 interaction (Homo sapiens, UniProt P16220); test: CREB–CRTC2 mammalian two-hybrid assay (GAL4-Luc reporter); assay type: cell-based; set-up: CREB/CRTC2 -luc activity %: concentration or dose not given beside the values; settings: for relative Gal4-luc activity %: Fig 3b replicates
T1 construct: expressed in transfected cells; host or cells: HEK293T

Metabolic chamber assay = assay type: in vivo, mouse; settings: DIO ip APC; for AUC of RER, %, group mean: mean of APC group, N=4; for AUC of RER, % / RER of DIO: single animals
Protocol: Metabolic parameters of mice were determined using Columbus Instruments Comprehensive Lab Animal Monitoring System (CLAMS). The area unit under the curve (AUC) of respiratory exchange ratio (RER) and ambulatory activity (X-TOT) were calculated using Graphpad prism 8.0.

T1 sequence (P16220 whole entry, the tested form may be a part): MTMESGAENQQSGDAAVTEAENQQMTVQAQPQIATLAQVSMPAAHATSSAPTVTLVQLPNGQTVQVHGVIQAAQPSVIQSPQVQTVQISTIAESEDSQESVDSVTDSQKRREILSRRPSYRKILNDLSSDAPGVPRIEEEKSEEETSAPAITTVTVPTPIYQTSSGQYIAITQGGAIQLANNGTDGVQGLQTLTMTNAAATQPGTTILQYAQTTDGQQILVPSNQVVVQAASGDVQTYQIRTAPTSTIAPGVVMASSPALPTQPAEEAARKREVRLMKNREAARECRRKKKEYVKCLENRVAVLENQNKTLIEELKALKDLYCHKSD

## CC(C)=CCc1cc(C=CC(=O)O)cc(CC=C(C)C)c1O [APC, 3,5-diprenyl-4-hydroxycinnamic acid]
CREB-CRTC2 interaction; 16 h, Figure 9b, Log10(M) -3, single replicates, read-out: Gal4-LUC reporter activiry, %
  remaining activity at 1000 µM: 0.439%
CREB-CRTC2 interaction; 16 h, Figure 9b, Log10(M) -4, single replicates, read-out: Gal4-LUC reporter activiry, %
  remaining activity at 100 µM: 0.257%
CREB-CRTC2 interaction; 16 h, Figure 9b, Log10(M) -6, single replicates, read-out: Gal4-LUC reporter activiry, %
  remaining activity at 1 µM: 36.2%
CREB-CRTC2 interaction; 16 h, Figure 9b, Log10(M) -7, single replicates, read-out: Gal4-LUC reporter activiry, %
  remaining activity at 0.1 µM: 71.6%
CREB-CRTC2 interaction; 16 h, Figure 9b, Log10(M) -8, single replicates, read-out: Gal4-LUC reporter activiry, %
  remaining activity at 0.01 µM: 92.8%
CREB-CRTC2 interaction; 16 h, Figure 9b, Log10(M) -9, single replicates, read-out: Gal4-LUC reporter activiry, %
  remaining activity at 0.001 µM: 74.9%
CREB-CRTC2 interaction; 16 h, Figure 9b, Log10(M) -10, single replicates, read-out: Gal4-LUC reporter activiry, %
  remaining activity at 0.0001 µM: 102%
CREB-CRTC2 interaction; APC Log10(M) -3
  relative Gal4-luc activity %: 0.3266% and 0.2637% and 0.3128%
CREB-CRTC2 interaction; APC Log10(M) -4
  relative Gal4-luc activity %: 10.2018% and 10.3248% and 10.277%
CREB-CRTC2 interaction; APC Log10(M) -5
  relative Gal4-luc activity %: 61.3194% and 69.9978% and 76.9726%
CREB-CRTC2 interaction; APC Log10(M) -6
  relative Gal4-luc activity %: 65.67% and 82.3932% and 92.7658%
CREB-CRTC2 interaction; APC Log10(M) -7
  relative Gal4-luc activity %: 64.5839% and 85.9224% and 107.618%
CREB-CRTC2 interaction; APC Log10(M) -8
  relative Gal4-luc activity %: 99.4977% and 99.5841% and 100.918%
CREB-CRTC2 interaction; APC Log10(M) -9
  relative Gal4-luc activity %: 107.021% and 111.522% and 103.779%
CREB-CRTC2 interaction; Figure 1f, CREB-CRTC2 two-hybrid assay, DMSO control about 100, listed as P3
  Relative Gal4-LUC activity, single replicates: 21.4874 and 38.8421 and 27.0437
CREB-CRTC2 interaction; HEK293T, isolated compound 25 μM, listed as P3
  reporter activity of CREB–CRTC2 two-hybrid assay: significantly inhibited; also recorded: most potent
CREB-CRTC2 interaction; Supp. Fig.10 a, individual replicates, Ctrl about 97
  Related Gal4-luc %: 42.290% and 38.150% and 46.110% and 51.003%
CREB-CRTC2 interaction; Supp. Fig.10 a, mean of n=4, CTRL mean 96.58
  Related Gal4-luc %, group mean (Test details, Mean 2): 44.39%
CREB-CRTC2 interaction; Supp. Fig.10 b, individual replicates, Ctrl about 100
  CREB/CRTC2 -luc activity %: 51.481% and 56.411% and 65.126%
CREB-CRTC2 interaction; cell-based two-hybrid assay, HEK293T cells, read-out: IC50 for disrupting CREB–CRTC2 interaction
  IC50: ~24.5 µM and 24.5 µM
Metabolic chamber assay; Dark
  AUC of RER, %, group mean: 65.31%
Metabolic chamber assay; Light
  AUC of RER, %, group mean: 53.9%
  AUC of RER, %: 54.07% and 52.83% and 53.85% and 54.85%
Metabolic chamber assay; Mean of APC, 70 intervals, 4 animals
  RER of DIO, column mean over the RER curve: 0.8038
Metabolic chamber assay; Mean of APC, two-way RM ANOVA
  AUC of RER, %, column mean over total, light and dark: 79.47%
Metabolic chamber assay; Total
  AUC of RER, %, group mean: 119.2%
  AUC of RER, %: 125.06% and 111.68% and 115.24% and 124.86%
Metabolic chamber assay; dark
  AUC of RER, %: 70.99% and 58.85% and 61.39% and 70.01%
Metabolic chamber assay; interval 1, hour 0
  RER of DIO: 0.728 and 0.729 (2×) and 0.733
Metabolic chamber assay; interval 2, hour 0.7
  RER of DIO: 0.795 and 0.774 and 0.72 and 0.734
Metabolic chamber assay; interval 3, hour 1.1
  RER of DIO: 0.732 and 0.773 and 0.726 and 0.735
Metabolic chamber assay; interval 4, hour 1.5
  RER of DIO: 0.747 and 0.761 and 0.73 and 0.738
Metabolic chamber assay; interval 5, hour 1.8
  RER of DIO: 0.78 and 0.778 and 0.722 and 0.754
Metabolic chamber assay; interval 6, hour 2.2
  RER of DIO: 0.747 and 0.794 and 0.723 and 0.738
Metabolic chamber assay; interval 7, hour 2.6
  RER of DIO: 0.764 and 0.792 and 0.716 and 0.758
Metabolic chamber assay; interval 8, hour 2.9
  RER of DIO: 0.779 and 0.804 and 0.705 and 0.738
Metabolic chamber assay; interval 9, hour 3.3
  RER of DIO: 0.766 and 0.82 and 0.724 and 0.727
Metabolic chamber assay; interval 10, hour 3.7
  RER of DIO: 0.818 and 0.814 and 0.729 and 0.75
Metabolic chamber assay; interval 11, hour 4.0
  RER of DIO: 0.78 and 0.803 and 0.732 and 0.733
Metabolic chamber assay; interval 12, hour 4.4
  RER of DIO: 0.735 and 0.792 and 0.714 and 0.756
Metabolic chamber assay; interval 13, hour 4.8
  RER of DIO: 0.768 and 0.812 and 0.743 and 0.781
Metabolic chamber assay; interval 14, hour 5.1
  RER of DIO: 0.759 and 0.799 and 0.716 and 0.757
Metabolic chamber assay; interval 15, hour 5.5
  RER of DIO: 0.769 and 0.778 and 0.775 and 0.742
Metabolic chamber assay; interval 16, hour 5.9
  RER of DIO: 0.783 and 0.804 and 0.718 and 0.774
Metabolic chamber assay; interval 17, hour 6.2
  RER of DIO: 0.75 and 0.77 and 0.709 and 0.78
Metabolic chamber assay; interval 18, hour 6.6
  RER of DIO: 0.801 and 0.79 and 0.715 and 0.767
Metabolic chamber assay; interval 19, hour 7.0
  RER of DIO: 0.759 and 0.797 and 0.758 and 0.785
Metabolic chamber assay; interval 20, hour 7.3
  RER of DIO: 0.769 and 0.747 and 0.713 and 0.758
Metabolic chamber assay; interval 21, hour 7.7
  RER of DIO: 0.841 and 0.78 and 0.749 and 0.771
Metabolic chamber assay; interval 22, hour 8.1
  RER of DIO: 0.782 and 0.771 and 0.743 and 0.797
Metabolic chamber assay; interval 23, hour 8.4
  RER of DIO: 0.804 and 0.814 and 0.781 and 0.79
Metabolic chamber assay; interval 24, hour 8.8
  RER of DIO: 0.838 and 0.788 and 0.764 and 0.822
Metabolic chamber assay; interval 25, hour 9.2
  RER of DIO: 0.844 and 0.798 and 0.804 and 0.842
Metabolic chamber assay; interval 26, hour 9.5
  RER of DIO: 0.809 and 0.808 and 0.794 and 0.831
Metabolic chamber assay; interval 27, hour 9.9
  RER of DIO: 0.818 and 0.808 and 0.792 and 0.849
Metabolic chamber assay; interval 28, hour 10.3
  RER of DIO: 0.832 and 0.843 and 0.84 and 0.846
Metabolic chamber assay; interval 29, hour 10.6
  RER of DIO: 0.841 and 0.824 and 0.818 and 0.858
Metabolic chamber assay; interval 30, hour 11.0
  RER of DIO: 0.821 and 0.847 and 0.832 (2×)
Metabolic chamber assay; interval 31, hour 11.4
  RER of DIO: 0.844 and 0.835 and 0.841 and 0.829
Metabolic chamber assay; interval 32, hour 11.7
  RER of DIO: 0.827 and 0.833 and 0.828 and 0.825
Metabolic chamber assay; interval 33, hour 12.1
  RER of DIO: 0.841 and 0.831 and 0.816 (2×)
Metabolic chamber assay; interval 34, hour 12.5
  RER of DIO: 0.864 and 0.863 and 0.842 and 0.837
Metabolic chamber assay; interval 35, hour 12.8
  RER of DIO: 0.866 and 0.842 and 0.843 and 0.836
